Earlier results, collected in patent US6511813B1, “Elongation factor P (EFP) and assays and antimicrobial treatments related to the same” (Pharmacia & Upjohn Company, priority 1999, dated 2003).

Key:
peptidyltransferase [1] = tested on: peptidyltransferase
[2] = tested on: fMet-tRNAfMet/ribosome translation complex
peptidyltransferase [3] = tested on: peptidyltransferase; remark: listed apart in the source

Row | Compound | effect on efp reaction (efp) | effect on formation of the fMet-tRNAfMet/ribosome translation complex [2] | effect on the peptide-bond synthesis which occurs in the absence of efp (peptidyltransferase [3]) | also measured
1 | CC[C@H]1OC(=O)[C@H](C)[C@@H](O[C@H]2C[C@@](C)(OC)[C@@H](O)[C@H](C)O2)[C@H](C)[C@@H](O[C@@H]2O[C@H](C)C[C@H](N(C)C)[C@H]2O)[C@](C)(O)C[C@@H](C)C(=O)[C@H](C)[C@@H](O)[C@]1(C)O [Erythromycin] |  |  |  | effect on the efp reaction (efp; at 5×10^−5): no apparent effect
2 | CCC[C@@H]1C[C@@H](C(=O)N[C@@H]([C@H]2O[C@H](SC)[C@H](O)[C@@H](O)[C@H]2O)[C@@H](C)O)N(C)C1 [Lincomycin] | nullifies the ability of efp to stimulate synthesis of peptide bonds |  |  | effect on the synthesis of polyphenylalanine (ribosome): marginal effects; effect on the puromycin reaction (peptidyltransferase [1]): inhibits
3 | [H]/N=C(/N)N[C@H]1[C@H](O)[C@@H](O)[C@H](O[C@@H]2O[C@@H](C)[C@](O)(C=O)[C@H]2O[C@@H]2O[C@@H](CO)[C@H](O)[C@@H](O)[C@@H]2NC)[C@@H](N/C(N)=N\[H])[C@@H]1O [Streptomycin] |  |  |  | inhibition of the efp-mediated reaction (efp; at 2×10^−5 M): potent inhibitor
4 | C=C(NC(=O)C(=C)NC(=O)c1csc(C2=N[C@@H]3c4csc(n4)[C@H]4NC(=O)c5csc(n5)[C@H]([C@](C)(O)[C@@H](C)O)NC(=O)[C@H]5CSC(=N5)/C(=C/C)NC(=O)[C@H]([C@@H](C)O)NC(=O)c5csc(n5)[C@]3(CC2)NC(=O)[C@H](C)NC(=O)C(=C)NC(=O)[C@H](C)NC(=O)[C@H]([C@@H](C)CC)N[C@@H]2C=Cc3c([C@H](C)O)cc(nc3[C@H]2O)C(=O)O[C@@H]4C)n1)C(N)=O [thiostrepton] | inhibit only about 20% or have no effect | no effect | no effect | 
5 | neomycin | inhibit only about 20% or have no effect | no effect | no effect | 
